Results reported in patent US20090022684A1, “Methods for hematopoietic stimulation” (priority 2006, published 2009).
Positions of bridges follow the written chain, without caps; N, C: chain ends. Residues, ends and D or L forms follow the SMILES beside them.

Tests used:
[1] = tested on: male mice of the C57BL/6 strain; test: In vivo mouse study: white blood cell, neutrophil and lymphocyte populations after 14 days of subcutaneous dosing; details: for increase in neutrophil population compared to mice in the control group / increase in the white blood cell population compared to mice in the control group: Day 14, vs control group without any treatment; for Lymphocytes / Neutrophils / White Blood Cells: Day 14 blood, s.c. over 14 days, peptide 80 μg/kg once daily, G-CSF 10 μg/kg once daily, EPO 600 IU/kg Days 1, 4, 7, 10, 14, group mean
Description: In vivo Test System. Mouse was selected as the in vivo test system. Sufficient male mice of the C57BL/6 strain was obtained. The animals was obtained as weanlings of about 24-27 days of age on arrival. At randomization, their body weights were within ±20% of the overall mean for each sex. The health care and welfare of the mice were maintained in accordance with the requirement of the Animals (Scientific Procedures) Act 1986 UK. All animals were given clinical inspection for ill health on arrival. They were acclimatized for about three weeks and a veterinary inspection was performed before the start of dosing to ensure their suitability for study. The mice were assigned to treatment groups during the acclimatization period using a total randomization procedure. Group mean body weights were calculated and inspected to ensure there were no unacceptable difference between groups.
Preparation of Administered Formulation of [Leu^27]cyclo(Glu^22-Lys^26)-hPTH-(1-31)-NH2. The bulk freeze-dried peptide [Leu^27]cyclo(Glu^22-Lys^26)-hPTH-(1-31)-NH2 (SEQ ID NO: 4) was dissolved in 0.01 M acetic acid. The concentration of peptide in the solution was 1 μg/μL. The solution was re-aliquotted into dosing vials and kept frozen at approximately −70° C. The vials were then freeze-dried at the temperature lower than −20° C. and stored frozen until required. The freeze-dried aliquots for injection was reconstituted daily. The peptide was dissolved in an appropriate volume of purified water to an approximate concentration of 2-3 mg/mL. The phosphate-buffered saline (pH=7.4) was added to give the final required concentration and the pH value of the final solution is approximately 7.2. The capped vials were mixed thoroughly to ensure peptide was fully dissolved prior to use. Aseptic techniques and glass vials were used throughout dose preparation.
Preparation of Administered Formulation of G-CSF. G-CSF was provided at a concentration of 300 μg/mL in sorbito, sodium acetate and polysorbate 80 in water for injection. The stock solution was diluted accordingly with water for injection to provide the correct dosing concentration.
Preparation of Administered Formulation of EPO. EPO was provided at a concentration of 40,000 IU/mL in polysorbate 80, sodium chloride, sodium dihydrogen phosphate dihydrate, disodium phosphate dihydrate, glycine and water for injection. The stock solution was diluted accordingly with phosphate buffered solution to provide the correct dosing concentration.
In vivo Mouse Study. The peptide [Leu^27]cyclo(Glu^22-Lys^26)-hPTH-(1-31 )-NH2 (SEQ ID NO: 4), G-CSF or EPO were administered subcutaneously over 14 days. The mice were dosed as follows:
The peptide [Leu^27]cyclo(Glu^22-Lys^2 1)-hPTH-(1-3 I)-NH2 was administered to all mice in Groups 2, 3, 4 and 5 once daily for fourteen days at a dose level of 80 μg/kg.
Mice in Group 3, 4 and 5 also received EPO and/or G-CSF. EPO was administered on Days 1, 4, 7, 10 and 14 at a dose of 600 IU/kg. G-CSF was administered once daily for fourteen days at a dose level of 10 μg/kg.
Mice in 6, 7, 8 received EPO and/or G-CSF. EPO was administered on Days 1, 4, 7, 10 and 14 at a dose level of 600 IU/kg. G-CSF was administered once daily for fourteen days at a dose level of 10 μg/kg.
On Day 14, blood samples (0.5 mL EDTA nominal, 0.6 mL lithium heparin nominal) were withdrawn from all mice and were collected into lithium heparin tubes. The tubes were centrifuged and the plasma were separated and analyzed.

healthy older volunteers = test: Phase I clinical trial: changes in blood cell populations from baseline to Day 7; type: in vivo, human; details: for effect on white blood cell population, especially neutrophil population: healthy adults, compared to placebo
Description: A Phase I, single-center, randomized double blind, placebo-controlled, multiple-escalating-dose study in healthy older volunteers was carried out for the peptide [Leu^27]cyclo(Glu^22-Lys^2 1)-hPTH-(1-31)-NH2 (SEQ ID NO: 4). Subjects were healthy males and females (non-reproductive potential), aged 40 to 65 years. […] Subcutaneous injections of placebo or the peptide with a dosage of 10 μg, 20 μg, 40 μg, 60 μg, or 80 μg was administered daily for 7 days. For each dosage level, 2 subjects (I male and I female) received placebo and 6 subjects (3 males and 3 females) received the peptide daily.
The number of white blood cells and the number neutrophils in a subject treated with the peptide increase as the dosage increases until it reaches the maximum at the dosage level of 60 μg. Increase in the number of white blood cells in subject treated with 60 μg of [Leu^27]cyclo(Glu^22-Lys^26)-hPTH-(1-31)-NH2 at Day 7 from the baseline level was about 8 times of that in subjects treated with placebo.

CC[C@H](C)[C@H](NC(=O)[C@H](CCC(=O)O)NC(=O)[C@H](CO)NC(=O)[C@@H](NC(=O)[C@@H](N)CO)C(C)C)C(=O)N[C@@H](CCC(N)=O)C(=O)N[C@@H](CC(C)C)C(=O)N[C@@H](CCSC)C(=O)N[C@@H](Cc1c[nH]cn1)C(=O)N[C@@H](CC(N)=O)C(=O)N[C@@H](CC(C)C)C(=O)NCC(=O)N[C@@H](CCCCN)C(=O)N[C@@H](Cc1c[nH]cn1)C(=O)N[C@@H](CC(C)C)C(=O)N[C@@H](CC(N)=O)C(=O)N[C@@H](CO)C(=O)N[C@@H](CCSC)C(=O)N[C@@H](CCC(=O)O)C(=O)N[C@@H](CCCNC(=N)N)C(=O)N[C@H](C(=O)N[C@H]1CCC(=O)NCCCC[C@@H](C(=O)N[C@@H](CC(C)C)C(=O)N[C@@H](CC(C)C)C(=O)N[C@@H](CCC(N)=O)C(=O)N[C@@H](CC(=O)O)C(=O)N[C@H](C(N)=O)C(C)C)NC(=O)[C@H](CCCNC(=N)N)NC(=O)[C@H](CC(C)C)NC(=O)[C@H](Cc2c[nH]c3ccccc23)NC1=O)C(C)C [[Leu^27]cyclo(Glu^22-Lys^26)-hPTH-(1-31)-NH2] (H-SVSEIQLMHNLGKHLNSMERVEWLRKLLQDV-NH2; lactam 22-26; N-terminus assumed)
increase in lymphocyte population ([1]; Day 14, vs control group): ~20%
increase in neutrophil population compared to mice in the control group [1]: ~75%
increase in the white blood cell population compared to mice in the control group [1]: ~26%
Lymphocytes [1]: 3.7 ± 1.92 1000/cmm
Neutrophils [1]: 0.7 ± 0.35 1000/cmm
White Blood Cells [1]: 4.8 ± 2.13 1000/cmm
Neutrophil, change in mean from baseline to Day 7 (healthy older volunteers; 10 μg s.c. daily for 7 days): 1.22 x e^9/L
Platelet, change in mean from baseline to Day 7 (healthy older volunteers; 10 μg s.c. daily for 7 days): 19.80 x e^9/L
Relative Neutrophil Count, change in mean from baseline to Day 7 (healthy older volunteers; 10 μg s.c. daily for 7 days): 4%
White Blood Cells, change in mean from baseline to Day 7 (healthy older volunteers; 10 μg s.c. daily for 7 days): 1.50 x e^9/L
Neutrophil, change in mean from baseline to Day 7 (healthy older volunteers; 20 μg s.c. daily for 7 days): 1.22 x e^9/L
Platelet, change in mean from baseline to Day 7 (healthy older volunteers; 20 μg s.c. daily for 7 days): 16.83 x e^9/L
Relative Neutrophil Count, change in mean from baseline to Day 7 (healthy older volunteers; 20 μg s.c. daily for 7 days): 3%
White Blood Cells, change in mean from baseline to Day 7 (healthy older volunteers; 20 μg s.c. daily for 7 days): 1.75 x e^9/L
Neutrophil, change in mean from baseline to Day 7 (healthy older volunteers; 40 μg s.c. daily for 7 days): 2.88 x e^9/L
Platelet, change in mean from baseline to Day 7 (healthy older volunteers; 40 μg s.c. daily for 7 days): 28.50 x e^9/L
Relative Neutrophil Count, change in mean from baseline to Day 7 (healthy older volunteers; 40 μg s.c. daily for 7 days): 12%
White Blood Cells, change in mean from baseline to Day 7 (healthy older volunteers; 40 μg s.c. daily for 7 days): 3.23 x e^9/L
Increase in the number of white blood cells at Day 7 from baseline relative to that in subjects treated with placebo (healthy older volunteers; 60 μg s.c. daily for 7 days): about 8 times
Neutrophil, change in mean from baseline to Day 7 (healthy older volunteers; 60 μg s.c. daily for 7 days): 4.53 x e^9/L
Platelet, change in mean from baseline to Day 7 (healthy older volunteers; 60 μg s.c. daily for 7 days): 47.83 x e^9/L
Relative Neutrophil Count, change in mean from baseline to Day 7 (healthy older volunteers; 60 μg s.c. daily for 7 days): 16%
White Blood Cells, change in mean from baseline to Day 7 (healthy older volunteers; 60 μg s.c. daily for 7 days): 4.65 x e^9/L
Neutrophil, change in mean from baseline to Day 7 (healthy older volunteers; 80 μg s.c. daily for 7 days): 4.40 x e^9/L
Platelet, change in mean from baseline to Day 7 (healthy older volunteers; 80 μg s.c. daily for 7 days): 39.50 x e^9/L
Relative Neutrophil Count, change in mean from baseline to Day 7 (healthy older volunteers; 80 μg s.c. daily for 7 days): 17%
White Blood Cells, change in mean from baseline to Day 7 (healthy older volunteers; 80 μg s.c. daily for 7 days): 4.40 x e^9/L
increase in population of neutrophils at Day 7 relative to that for subjects treated with placebo (healthy older volunteers; Day 7, s.c. daily for 7 days): about 50 fold
platelet count (healthy older volunteers; dosage level of 60 μg and 80 μg, s.c. daily for 7 days): Significant increase
effect on white blood cell population, especially neutrophil population (healthy older volunteers; s.c. daily for 7 days): significant stimulating effect
effect on white blood cell population, especially neutrophil population (healthy older volunteers; s.c. daily for 7 days, listed as cyclic peptide of SEQ ID NO: 4): significant increase

EPO: erythropoietin, an erythropoiesis regulator
Lymphocytes [1]: 3.5 ± 1.12 1000/cmm
Neutrophils [1]: 0.5 ± 0.49 1000/cmm
White Blood Cells [1]: 4.3 ± 1.56 1000/cmm

B1: G-CSF: granulocyte colony-stimulating factor, a hematopoietic growth factor (protein, UniProt P09919 31-207, looked up)
Granulocyte …: TPLGPASSLPQSFLLKCLEQVRKIQGDGAALQEKLVSECATYKLCHPEELVLLGHSLGIPWAPLSSCPSQALQLAGCLSQLHSGLFLYQGLLQALEGISPELGPTLDTLQLDVADFATTIWQQMEELGMAPALQPTQGAMPAFASAFQRRAGGVLVASHLQSFLEVSYRVLRHLAQP
increase in neutrophil population compared to mice in the control group [1]: ~175%
increase in the white blood cell population compared to mice in the control group [1]: ~20%
Lymphocytes [1]: 3.0 ± 1.30 1000/cmm
Neutrophils [1]: 1.1 ± 0.25 1000/cmm
White Blood Cells [1]: 4.5 ± 1.36 1000/cmm
